SMILES strings stand for the structures. “Also recorded” adds a separate entry of the source. Like-named read-outs stand apart in the source and are kept apart here. Where only a bound is given, the exact number is not on record here.

Test [1] relates to complex II. Also on record: method as in PMID 19505951. The settings on record: read-out: IC50 for complex II from T. cruzi; cited from earlier work.
Test [2] deals with Succinate-cyt c activity. The settings on record: Rat; cited from earlier work.
For test [3], the system named is complex II. Also on record: method as in PMID 19505951. As to conditions: read-out: IC50 for complex II from L. donovani; cited from earlier work.
Test [4] addresses succinate-cytochrome c reductase activity (Complex II-III). Kind of test: Inhibition of succinate-cytochrome c reductase activity (Complex II-III) of E. tenella mitochondria-rich fraction. In kind it is biochemical, Eimeria tenella. The settings on record: for IC50: E. tenella mitochondria-rich fraction, complex II-III activity, read-out: IC50 of Succinate-cyt c Activity. How it is done: (§1) All enzyme assays were performed using 5–10 µg of the mitochondria-rich fraction using black quartz cuvettes in 0.6 mL reaction mixture at 25 °C. The reagents used in each assay were mixed with a reaction buffer containing 50 mM potassium phosphate (pH 7.4) (KPi Buffer) and 2 mM EDTA.
Cytochrome c–linked NADH, G3P, malate, succinate, and DHO dehydrogenase activities were determined in a reaction mixture containing 30 µM horse heart cytochrome c and 2 mM KCN at 550 nm (ε = 19 mM^−1 cm^−1) by adding 0.2 mM NADH, 5 mM malate, 5 mM G3P, 8.3 mM succinate, and 0.4 mM DHO, respectively, into the reaction buffer.
(§2) […]; As the positive control for complex II-III inhibition assay, 0.1 μM of stigmatellin (complex III inhibitor) was used.

The subject of test [5] is complex II. Set-up: method as in PMID 19505951. The settings on record: read-out: IC50 for complex II from Leishmania tarentolae; cited from earlier work.
Test [6] has as its target E. tenella complex II (Eimeria tenella, UniProt U6KGY0+U6KWN9). Briefly: Inhibition of succinate-dUQ (SQR) activity of E. tenella complex II. In kind it is biochemical. The settings on record: for Inhibition of E. tenella complex II: even at higher concentration of 50 μM. How it is done:
as §1
Individual G3PDH, MQO, SDH, and DHODH activities were assayed at 278 nm in the presence of each substrate as described above, however, instead of cytochrome c, 50 µM of decylubiquinone (dUQ) (ε = 15 mM^−1 cm^−1) was added. The NDH-2 activity was measured following the consumption of NADH at 340 nm.
as §2

For test [7], the system named is complex II. Also on record: method as in PMID 19505951. As to conditions: read-out: IC50 for complex II from Trypanosoma brucei; cited from earlier work.
Test [8] deals with Succinate-cyt c activity. The settings on record: Porcine; cited from earlier work.
The test system of test [9] is P. y. yoelii complex II. The settings on record: cited from earlier work; for IC50: P. y. yoelii, read-out: IC50 of Succinate-cyt c Activity.
The test system of test [10] is bovine complex II. The settings on record: cited from earlier work.
Test [11] has as its system NADH oxidase activity (NDH-2-Complex III-IV). Kind of test: NADH oxidase activity (NDH-2-Complex III-IV) of E. tenella mitochondria-rich fraction. In kind it is biochemical, Eimeria tenella. The settings on record: for NADH oxidase specific activity after addition: consecutive additions: 2 mM KCN, then 2 mM fumarate, then 5 mM malonate, without additions 5.9 ± 0.9, experiment C.

The subject of test [12] is Ascaris suum complex II. As to conditions: cited from earlier work.

Sequence of E. tenella complex II (U6KGY0 entry or part of it): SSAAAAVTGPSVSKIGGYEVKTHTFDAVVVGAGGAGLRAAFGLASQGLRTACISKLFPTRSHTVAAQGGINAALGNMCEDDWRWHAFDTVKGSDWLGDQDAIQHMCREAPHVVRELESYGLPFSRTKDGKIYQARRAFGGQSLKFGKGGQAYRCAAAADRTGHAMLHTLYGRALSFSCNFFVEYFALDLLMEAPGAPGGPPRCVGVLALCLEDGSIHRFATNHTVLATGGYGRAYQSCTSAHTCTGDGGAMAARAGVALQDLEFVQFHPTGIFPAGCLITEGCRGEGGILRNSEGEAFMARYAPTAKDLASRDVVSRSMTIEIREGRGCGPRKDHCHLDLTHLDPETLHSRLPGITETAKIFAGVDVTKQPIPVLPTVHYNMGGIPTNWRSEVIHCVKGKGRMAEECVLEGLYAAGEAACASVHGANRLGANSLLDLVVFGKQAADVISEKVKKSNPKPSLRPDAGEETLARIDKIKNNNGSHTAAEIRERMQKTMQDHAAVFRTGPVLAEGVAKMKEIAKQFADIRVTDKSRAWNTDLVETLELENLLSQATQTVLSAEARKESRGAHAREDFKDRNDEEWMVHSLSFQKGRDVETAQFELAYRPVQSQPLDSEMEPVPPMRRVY
Sequence of E. tenella complex II (U6KWN9 entry or part of it): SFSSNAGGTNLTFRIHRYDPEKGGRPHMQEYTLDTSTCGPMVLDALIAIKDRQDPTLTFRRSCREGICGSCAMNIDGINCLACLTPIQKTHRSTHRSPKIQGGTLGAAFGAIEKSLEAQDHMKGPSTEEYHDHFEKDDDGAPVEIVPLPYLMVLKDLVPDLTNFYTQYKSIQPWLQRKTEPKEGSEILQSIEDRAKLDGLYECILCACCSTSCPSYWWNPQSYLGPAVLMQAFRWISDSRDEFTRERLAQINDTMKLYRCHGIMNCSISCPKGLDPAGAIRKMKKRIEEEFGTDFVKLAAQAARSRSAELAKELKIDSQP

Turning to `Cc1cc(O)c2c(c1)O[C@@]1(C)CC[C@H]3C(C)(C)CCC[C@]34CO[C@@H]2[C@H]41` [Siccanin, siccanin], the IC50 – broadly, the midpoint of a concentration-inhibition curve – in [1] is 1.48 µM; in test [2], 9.3 ± 1 µM; in test [3], 1.17 µM; in test [4] it was 4 ± 0.6 µM; in test [5], 0.19 µM; in test [6] (E. tenella, SQR activity of complex II, read-out: IC50 determined for succinate-dUQ activity), over 50 µM. The 50% inhibitory concentration (IC50) in test [7] is 0.368 µM; in [8], 861 ± 822 µM. Moreover, in test [6] (E. tenella), the “Inhibition of the SQR activity of complex II” value is “did not inhibit”. The “Inhibition of E. tenella complex II” value in [6] is on record as “did not inhibit”.
With `C/C=C(C)/C=C/C=C/[C@H](OC)[C@@H](C)[C@@H](OC)[C@@H](C)CCc1oc2c(O)c(OC)cc(OC)c2c(=O)c1C` [Stigmatellin, stigmatellin], in test [4] (E. tenella, 100 nM stigmatellin, positive control for complex III inhibition), the “Percentage inhibition of succinate-cyt c activity” value is listed as 78.4 ± 13.1% ^2.
Take `COc1[nH]c(=O)c(C(=O)[C@@H](C)C[C@H](C)[C@@H](Cl)CCl)c(O)c1OC` [Atpenin A5, atpenin A5]: the concentration for half-maximal inhibition (IC50) is 4.2 ± 0.2 µM in test [9], 0.007 ± 0.0003 µM in [2], 0.004 µM in test [10] and over 50 µM in [4]. In test [9], the “Fold lower sensitivity of P. y. yoelii complex II to atpenin A5” value is reported as “about 600 fold”.
On to `CC1=C(C(=O)Nc2ccccc2)SCCO1` [Carboxin, carboxin], for which the IC50 in test [9] is 3.6 ± 1 µM; in test [2], 3.8 ± 0.1 µM; in [10], 1 µM; in test [4], over 50 µM. Moreover, the “Inhibition of E. tenella complex II” value in test [6] was “did not inhibit”.
As for `O=C(O)/C=C/C(=O)O` [fumarate], the “NADH oxidase specific activity after addition” value in test [11] was 1.3 ± 0.3 μmol/min/mg protein.
In the case of `CC(C)Oc1cccc(NC(=O)c2ccccc2C(F)(F)F)c1` [Flutolanil, flutolanil], the concentration for half-maximal inhibition (IC50) is over 100 µM in test [9]; over 100 µM in test [2]; over 50 µM in test [4]; 0.081 µM in test [12]; over 50 µM in test [8]. Also, the “Inhibition of E. tenella complex II” value in [6] is recorded as “did not inhibit”.
In the case of `O=C(O)CC(=O)O` [malonate], the “Effect on NADH oxidase / fumarate-dependent NADH oxidation activity” value in test [11] (2 mM KCN on NADH oxidase, 5 mM malonate on fumarate-restored activity in presence of KCN) is “abolished; also recorded: completely inhibited”. In addition, the “NADH oxidase specific activity after addition” value in test [11] was −0.5 ± 0.3 μmol/min/mg protein.

Source of the values: paper PMC6356742, “Novel Characteristics of Mitochondrial Electron Transport Chain from Eimeria tenella” (Genes, 2019).
